Laboratory results as given in PubChem BioAssay AID1963982 (Molecular Pharmacology Branch, DTP, NCI, 2024).

Test system: 313798-341-R-J2-PDC spheroids, viability
Experiment: Anticancer human tumor 313798-341-R-J2-PDC patient-derived cervical squamous cell carcinoma cell line growth inhibition [PI3K]
Conditions: spheroids with HUVEC and MSC; for IC50: curve of first compound; for viability, T/C: stronger effect = lower value
Description: Combinatorial screen of targeted agents with the PI3K inhibitors inavolisib, alpelisib, duvelisib, and copanlisib in multi-cell type tumor spheroids
A high-throughput screen of multi-cell type tumor spheroids was designed to identify active combinations of targeted small molecules and PI3K pathway inhibitors. Complex spheroids include a stromal component modeled by human endothelial cells (HUVEC) and fibroblasts modeled by human mesenchymal stem cells (MSCs). The concentration ranges selected for each drug and investigational agent were based upon clinically achievable concentrations if the clinical Cmax of the agent was known.
Compounds. The drugs and investigational agents: inavolisib (NSC800729), alpelisib (NSC765974), duvelisib (NSC772469), copanlisib (NSC816437), ipatasertib (NSC767898), afuresertib (NSC778305), talazoparib (NSC767125), sapanisertib (NSC764658), selumetinib (NSC741078), tovorafenib (DAY101, NSC766906), vemurafenib (NSC761431), ravoxertinib (NSC781343), sotorasib (NSC818433), MRTX1133 (NSC 836407), abemaciclib (NSC 768073), palbociclib (NSC758247), venetoclax (NSC 766270), SY5609 (NSC837396), enzalutamide (NSC755605), and darolutamide (NSC825331), were obtained from the National Cancer Institute (NCI) Developmental Therapeutics Program Chemical Repository. The FDA-approved anticancer drug set is available from the NCI Developmental Therapeutics Program. […] The stock solutions were prepared in dimethyl sulfoxide (DMSO, Sigma-Aldrich, St. Louis, MO, cat. D2650) at 800-fold the tested concentration and stored at -70 degrees C prior to their use. All drugs and investigational agents were tested over a range starting from a high concentration at or near the clinical Cmax and decreasing in half-log increments. If the clinical Cmax for an agent had not been determined, the highest concentration tested was 10 microM.
Cell Culture. All cells were maintained in an incubator at 37 degrees C and 5% CO2 with 95% humidity. The PDC lines were cultured according to standard operating procedures established by the NCI PDMR (https://pdmr.cancer.gov/sops/default.htm). All PDCs were thawed and cultured in Matrigel-coated flasks prepared with a working solution of 1X Ham's F-12 nutrient mix, without supplementation (Invitrogen, Waltham, MA, cat. 11765054), 100 U/mL penicillin-streptomycin (Invitrogen, cat. 15140122), and 2.5% Matrigel (Corning Inc., Corning, NY, cat. 354248) for the first three passages. The 354836-022-R-J1-PDC, 475296-252-R-J1-PDC, and 997726-040-R-J2-PDC lines were cultured in 6A media, which includes advanced DMEM/F-12 (Thermo Fisher Scientific, cat. 12634028), 10 mM HEPES (Thermo Fisher Scientific, cat. 15630080), 1X GlutaMAX supplement (Thermo Fisher Scientific, cat. 35050061), 0.1 mg/mL primocin (InvivoGen, San Diego, CA, cat. ant-pm-2), 10% defined fetal bovine serum, heat inactivated (HyClone Laboratories Inc., Logan, UT, cat. SH30070.03HI), 50% L-WRN conditioned media (ATCC, cat. CRL-3276), 1.25 mM N-Acetyl-L-cysteine (Sigma-Aldrich, cat. A9165), 10 mM nicotinamide (Sigma-Aldrich, cat. N0636), 1X B-27 supplement (Thermo Fisher Scientific, cat. 17504044), 1X N-2 supplement (Thermo Fisher Scientific, cat. 17502048), and 10 microM Y-27632 dihydrochloride (Tocris Bioscience, Bristol, United Kingdom, cat. 1254). The 624824-186-R-J2-PDC line was cultured in 6C/Colon 1B media, which includes all 6A media components plus 50 ng/mL human EGF recombinant protein (Thermo Fisher Scientific, cat. PHG0311). […]

[1] = second compound 0.00316 µM, first compound 0.0316 µM
[2] = second compound 0.00316 µM, first compound 0.1 µM
[3] = second compound 0.01 µM, first compound 0.0316 µM
[4] = second compound 0.01 µM, first compound 0.1 µM
[5] = second compound 0.0316 µM, first compound 0.0316 µM
[6] = second compound 0.0316 µM, first compound 0.1 µM
[7] = second compound 0.1 µM, first compound 0.0316 µM
[8] = second compound 0.1 µM, first compound 0.1 µM
[9] = second compound 0.316 µM, first compound 0.0316 µM
[10] = second compound 0.316 µM, first compound 0.1 µM
[11] = second compound 1 µM, first compound 0.0316 µM
[12] = second compound 1 µM, first compound 0.1 µM
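Further: spheroids exposed to compounds for seven days.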
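Wherever viability, T/C is given: 100% = DMSO vehicle control viability.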

`CC(=O)c1c(C)c2cnc(Nc3ccc(N4CCNCC4)cn3)nc2n(C2CCCC2)c1=O` + CC(Nc1ccc2c(c1)OCCn1cc(N3C(=O)OCC3C(F)F)nc1-2)C(N)=O showed an IC50 (second compound 0.00316 µM) of over 0.1 µM, an IC50 (second compound 0.01 µM) of over 0.1 µM and an IC50 (second compound 0.0316 µM) of over 0.1 µM. For the same molecule, the IC50 (second compound 0.1 µM) was over 0.1 µM, the IC50 (second compound 0.316 µM) was over 0.1 µM and the IC50 (second compound 1 µM) was over 0.1 µM. It also gave a viability, T/C (second compound 0.00316 µM, first compound 0.000316 µM) of 98.7%, a viability, T/C (second compound 0.00316 µM, first compound 0.001 µM) of 97.9% and a viability, T/C (second compound 0.00316 µM, first compound 0.00316 µM) of 107%. The viability, T/C (second compound 0.00316 µM, first compound 0.01 µM) was 102%, the viability, T/C [1] was 110% and the viability, T/C [2] was 102%. For the same molecule, the viability, T/C (second compound 0.01 µM, first compound 0.000316 µM) was 94.2%, the viability, T/C (second compound 0.01 µM, first compound 0.001 µM) was 100% and the viability, T/C (second compound 0.01 µM, first compound 0.00316 µM) was 113%. The viability, T/C (second compound 0.01 µM, first compound 0.01 µM) was 98.5%, the viability, T/C [3] was 124% and the viability, T/C [4] was 99.3%. For the same molecule, the viability, T/C (second compound 0.0316 µM, first compound 0.000316 µM) was 105%, the viability, T/C (second compound 0.0316 µM, first compound 0.001 µM) was 114% and the viability, T/C (second compound 0.0316 µM, first compound 0.00316 µM) was 108%. It also gave a viability, T/C (second compound 0.0316 µM, first compound 0.01 µM) of 110%, a viability, T/C [5] of 103% and a viability, T/C [6] of 103%. For the same molecule, the viability, T/C (second compound 0.1 µM, first compound 0.000316 µM) was 108%, the viability, T/C (second compound 0.1 µM, first compound 0.001 µM) was 102% and the viability, T/C (second compound 0.1 µM, first compound 0.00316 µM) was 102%. For the same molecule, the viability, T/C (second compound 0.1 µM, first compound 0.01 µM) was 110%, the viability, T/C [7] was 103% and the viability, T/C [8] was 113%. It also gave a viability, T/C (second compound 0.316 µM, first compound 0.000316 µM) of 82.8%, a viability, T/C (second compound 0.316 µM, first compound 0.001 µM) of 79.5% and a viability, T/C (second compound 0.316 µM, first compound 0.00316 µM) of 79.4%. For the same molecule, the viability, T/C (second compound 0.316 µM, first compound 0.01 µM) was 86.1%, the viability, T/C [9] was 83.8% and the viability, T/C [10] was 90.6%. It also gave a viability, T/C (second compound 1 µM, first compound 0.000316 µM) of 60.8%, a viability, T/C (second compound 1 µM, first compound 0.001 µM) of 57.5% and a viability, T/C (second compound 1 µM, first compound 0.00316 µM) of 58.3%. The viability, T/C (second compound 1 µM, first compound 0.01 µM) was 55.4%, the viability, T/C [11] was 61.6% and the viability, T/C [12] was 56.5%.
`CCCS(=O)(=O)Nc1ccc(F)c(C(=O)c2c[nH]c3ncc(-c4ccc(Cl)cc4)cc23)c1F` + CC(Nc1ccc2c(c1)OCCn1cc(N3C(=O)OCC3C(F)F)nc1-2)C(N)=O was tested, and the IC50 (second compound 0.00316 µM) was 6 µM, the IC50 (second compound 0.01 µM) was 6 µM and the IC50 (second compound 0.0316 µM) was 5.77 µM. For the same molecule, the IC50 (second compound 0.1 µM) was 4.97 µM, the IC50 (second compound 0.316 µM) was 3.56 µM and the IC50 (second compound 1 µM) was 1.67 µM. For the same molecule, the viability, T/C [1] was 90.6%, the viability, T/C [2] was 98.7% and the viability, T/C (second compound 0.00316 µM, first compound 0.316 µM) was 88.4%. It also gave a viability, T/C (second compound 0.00316 µM, first compound 1 µM) of 114%, a viability, T/C (second compound 0.00316 µM, first compound 3.16 µM) of 97.9% and a viability, T/C (second compound 0.00316 µM, first compound 10 µM) of 11.9%. It also gave a viability, T/C [3] of 99.1%, a viability, T/C [4] of 95.8% and a viability, T/C (second compound 0.01 µM, first compound 0.316 µM) of 98.7%. The viability, T/C (second compound 0.01 µM, first compound 1 µM) was 106%, the viability, T/C (second compound 0.01 µM, first compound 3.16 µM) was 104% and the viability, T/C (second compound 0.01 µM, first compound 10 µM) was 9.37%. For the same molecule, the viability, T/C [5] was 107%, the viability, T/C [6] was 97.8% and the viability, T/C (second compound 0.0316 µM, first compound 0.316 µM) was 97.7%. For the same molecule, the viability, T/C (second compound 0.0316 µM, first compound 1 µM) was 97.7%, the viability, T/C (second compound 0.0316 µM, first compound 3.16 µM) was 92.7% and the viability, T/C (second compound 0.0316 µM, first compound 10 µM) was 10.9%. It also gave a viability, T/C [7] of 104%, a viability, T/C [8] of 92.6% and a viability, T/C (second compound 0.1 µM, first compound 0.316 µM) of 84.9%. For the same molecule, the viability, T/C (second compound 0.1 µM, first compound 1 µM) was 92.6%, the viability, T/C (second compound 0.1 µM, first compound 3.16 µM) was 76% and the viability, T/C (second compound 0.1 µM, first compound 10 µM) was 9.75%. It also gave a viability, T/C [9] of 74.6%, a viability, T/C [10] of 82.1% and a viability, T/C (second compound 0.316 µM, first compound 0.316 µM) of 79.7%. It also gave a viability, T/C (second compound 0.316 µM, first compound 1 µM) of 73.6%, a viability, T/C (second compound 0.316 µM, first compound 3.16 µM) of 54.9% and a viability, T/C (second compound 0.316 µM, first compound 10 µM) of 8.5%. It also gave a viability, T/C [11] of 50.5%, a viability, T/C [12] of 59.1% and a viability, T/C (second compound 1 µM, first compound 0.316 µM) of 59.5%. The viability, T/C (second compound 1 µM, first compound 1 µM) was 58%, the viability, T/C (second compound 1 µM, first compound 3.16 µM) was 41.6% and the viability, T/C (second compound 1 µM, first compound 10 µM) was 8.44%.
